From patent US20260284082A1, “TARGETING THE PANX1-P2Y2R-TRPV4 PATHWAY TO TREAT LUNG ISCHEMIA-REPERFUSION INJURY” (UNIVERSITY OF VIRGINIA PATENT FOUNDATION, priority 2023, published 2026)

How the values were obtained:
[1] = system: murine primary pulmonary microvascular endothelial cells (PMVECs); experiment: Proinflammatory cytokine release from murine PMVECs after hypoxia-reoxygenation; assay type: cell-based; conditions: 6 h hypoxia + 4 h reoxygenation, AR-C 10 mM, 5 μM
Experimental: We used 6 hours hypoxia followed by 4 hours normoxia/reoxygenation (HR) in murine primary pulmonary microvascular endothelial cells (PMVECs) as a surrogate model of lung IR. Control cells were exposed to 10 hours normoxia (N). PMVECs were treated with vehicle or P2Y2R inhibitor AR-C ([…], 6 hrs). The concentrations of chemokine (C—X—C motif) ligand 1 (CXCL1) and monocvte chemoattractant protein-1 (MCP-1) in the culture media was measured using a mouse keratinocyte-derived chemokine (KC)/CXCL1 Quantikine ELISA kit (R&D Systems, Minneapolis, MN) and multiplex cytokine panel assay (Bio-Rad Laboratories, Hercules, CA), respectively. KC and MCP-1 levels were increased in PMVECs exposed to HR. Treatment of PMVECs with P2Y2R inhibitor AR-C reduced the levels of KC (FIG. 13A) and MCP-1 (FIG. 13B) in the culture media.

[2] = system: porcine transplantation model of lung IRI; experiment: Porcine left lung transplant model of lung IRI; assay type: in vivo, swine; conditions: for left lung-specific PaO2/FiO2 ratio: 1 mg/kg i.v., mean±SD
Experimental: The University of Virginia's Animal Care and Use Committee approved this study, protocol 4262 (approved 10/23/2021). All procedures were performed in compliance with the National Institutes of Health 1996 Guide for the Care and Use of Laboratory Animals. Ten farm-raised, domestic swine of both sexes (31.6-60.0 kg weight range) were utilized. Animals were randomized to one of two groups (n=5/group). […] GSK219 or vehicle was administered as a systemic, intravenous infusion (100 ml volume over a 30-min period via central venous line placed in the left external jugular vein) beginning after the recipient animal's left pulmonary artery (PA) was clamped (i.e. at the time of recipient lung explant; approximately 40 min prior to initiation of graft reperfusion). All infusions were completed prior to reperfusion of the implanted lung.
A porcine left lung transplant model was utilized as previously described by our laboratory^18, with modifications as described here. On day 1, the donor animal was sedated and intubated. General anesthesia was maintained while animals were ventilated with 100% oxygen to measure baseline parameters. Lungs were ventilated to a tidal volume of 8.0 mL/kg with a respiratory rate of 22 breaths/min and a positive end-expiratory pressure of 5.0 cm H2O. Intravenous heparin (200 IU/kg, APP Pharmaceuticals, Schaumburg, IL) was administered.
Donor animals underwent a median sternotomy and pericardiotomy to expose the heart, great vessels, and lungs. Prostaglandin E1 ([…], Pfizer, New York, NY) was injected into the main PA. […] The lungs were then flushed with 1 L room temperature heparinized Perfadex (XVIVO Perfusion. Inc, Englewood, CO; 10,000 IU heparin per liter) via the cardioplegia cannula. At this point the lungs underwent 30 min of warm ischemia. At the conclusion of warm ischemia, the thoracic cavity was filled with cold (4° C.) slush, and lungs were flushed with an additional 1 L cold Perfadex via the main PA. At mid-inspiration, the trachea was clamped, and the heart-lung bloc was explanted. The lungs were then flushed retrograde with an additional IL cold Perfadex and placed in 4° C. cold storage for 24 hrs.
On day 2, recipient animals were anesthetized and ventilated as above for donor animals. A left thoracotomy was performed. and the left lung hilum was exposed. Central arterial and venous access was obtained for monitoring. Left pneumonectomy and left lung transplantation were performed as previously described.^18 Lung function was monitored during 4 hours of reperfusion while the left thoracotomy remained open. Combined (left and right) lung compliance was monitored throughout reperfusion. Airway pressure measurements and partial pressure of arterial oxygen (PaO2; systemic arterial as well as direct left pulmonary vein samples for graft-specific oxygenation) were obtained after 15 minutes, 1 hour and hourly thereafter. […] PaO2, PaCO2, and pH were measured using an i-STAT handheld blood analyzer (Abbott Point of Care, Princeton, NJ). After 4 hours of reperfusion, the animal was euthanized, and the heart-lung bloc was excised.
After completion of reperfusion, small peripheral samples of the transplanted left lungs were tied off, and fresh tissue samples were collected from the left upper lobe, the left lingula, and left lower lobe. The same surgeon collected all samples from consistent, peripheral, dependent locations of each lobe in all animals. These samples were either used fresh or flash-frozen in liquid nitrogen and stored at −80° C.
Fresh lung samples were patted dry, weighed, and dried in a vacuum oven at 56° C. until the weight stabilized (typically 3-4 days). Lung wet/dry weight ratios were then calculated to assess edema.
After collection of fresh lung samples, the left upper lobe was lavaged using 40 ml normal saline. Total cell counts and differential cell counts in BAL fluid were performed by the University of Virginia Clinical Laboratory in a blinded fashion. […]

lung IRI = conditions: wild-type mice pretreated, left hilar ligation model; 1 mg/kg intravenous dose; cited from earlier work
[3] = after 4 hours of reperfusion, vs vehicle
[4] = after reperfusion, vs vehicle, P<0.05
[5] = after reperfusion, vs vehicle, trended lower

Cc1ccc2c(c1)C=Cc1cc(C)ccc1C2c1cn(Cc2ccc(C(=O)Nc3nn[nH]n3)o2)c(=O)[nH]c1=S [ARC, AR-C 118925XX]
KC level in the culture media [1]: reduced | MCP-1 level in the culture media [1]: reduced

O=C(NC1(c2ccccc2)CC1)c1c(CN2CCC(N3CCCCC3)CC2)c(-c2cccc(C(F)(F)F)c2)nc2cc(Br)ccc12 [GSK219, GSK2193874]
adverse effects of administration ([2]; 1 mg/kg i.v. infusion over 30 min to recipient, 4 h reperfusion): no adverse effects | left lung-specific PaO2/FiO2 ratio ([2]; 3 hours of reperfusion, vehicle 85.4±17.2, P=0.026): 276±57 mmHg | left lung-specific PaO2/FiO2 ratio ([2]; 4 hours of reperfusion, vehicle 104±28.6, P=0.003): 303±37 mmHg | left lung wet/dry weight ratios [2, 3]: no significant differences | overall lung histology by H&E staining [2, 3]: significantly improved | wet/dry weight ratios of the left lingula and left lower lobe [2, 3]: trend lower | neutrophils in BAL fluid (percent of total cells, differential cell count) ([2]; after reperfusion, vehicle 80.2±1.4%, P=0.004): 61.8±4.4% | Ang-2 in plasma ([2]; after reperfusion, vs vehicle): significantly reduced | HMGB1 in BAL fluid ([2]; after reperfusion, vs vehicle): significantly reduced | ICAM-1 in plasma ([2]; after reperfusion, vs vehicle): not significantly different | IL-1β in BAL fluid ([2]; after reperfusion, vs vehicle): not significantly altered | IL-8 in BAL fluid ([2]; after reperfusion, vs vehicle): significantly reduced | P-selectin in plasma ([2]; after reperfusion, vs vehicle): not significantly different | VCAM-1 in plasma ([2]; after reperfusion, vs vehicle): not significantly different | ZO-1 in plasma ([2]; after reperfusion, vs vehicle): significantly reduced | ZO-2 in BAL fluid ([2]; after reperfusion, vs vehicle): not significantly different but trended lower | ZO-2 in plasma ([2]; after reperfusion, vs vehicle): but not occludin (FIG. 23A) or ZO-2 (FIG. 23D) were significantly reduced | claudin-5 in plasma ([2]; after reperfusion, vs vehicle): significantly reduced | occludin in plasma ([2]; after reperfusion, vs vehicle): but not occludin (FIG. 23A) or ZO-2 (FIG. 23D) were significantly reduced | ZO-1 in BAL fluid [2, 4]: significantly reduced | claudin-5 in BAL fluid [2, 4]: significantly reduced | occludin in BAL fluid [2, 4]: significantly reduced | P-selectin in BAL fluid ([2]; after reperfusion, vs vehicle, P=0.0075): significantly reduced | ICAM-1 in BAL fluid [2, 5]: No significant changes | VCAM1 in BAL fluid [2, 5]: No significant changes | reduction of neutrophil infiltration (immunohistochemistry of lung sections, neutrophils per HPF) ([2]; compared to vehicle control, P<0.0001): 70% | systemic arterial PaO2/FiO2 ratio ([2]; during reperfusion, vs vehicle): improved during reperfusion in the GSK-treated group, although this was not significant | histologic score for polymorphonuclear neutrophils per high-powered field (PMNs/HPF) ([2]; left lower lobe after reperfusion, vs vehicle, P=0.028): significantly improved | histologic composite lung injury score ([2]; left lower lobe after reperfusion, vs vehicle, P=0.041): significantly improved | histologic score for alveolar edema ([2]; left lower lobe after reperfusion, vs vehicle, P=0.048): significantly improved | average pulmonary venous pH ([2]; throughout reperfusion, vehicle 7.3±0.024, no significant difference): 7.3±0.020 | average pulmonary venous PaCO2 ([2]; throughout reperfusion, vehicle 60.1±2.11, no significant difference): 60.4±1.46 mmHg | lung IRI (lung IRI): significant attenuation
